# In patent publication US20150250864A1, “ANTI-CANCER VACCINES” (Board of Regents, The University of Texas System, priority 2012, published 2015):
# “Also recorded” adds a separate entry of the source.
# Columns and labels:
# [1] = system: sera obtained from cancer patients; experiment: ELISA B cell epitope screening of 15-mer peptides with cancer patient sera; assay type: binding, human; conditions: single 15-mer peptides of SP8 or SP9
# Description: FIG. 7. Several novel epitopes were detected in BC patients by ELISA in SP8 and SP9, including 94, 108, 91, 88, 89, and 95 from pool 9.
# B cell epitopes have been screened by ELISA or flow cytometry using 4D1, 4E6, 4E11, 6H5, 6E11, 5F11mAbs or G11D10 or P 1/P2e (single chain antibodies generated from 6H5 (FIGS. 5-6), or the sera obtained from cancer patients (FIGS. 7-8). Several anti-HERV-K monoclonal antibodies were able to recognize some of these peptides.
# [2] = system: IVS cells; experiment: IFN-γ ELISPOT with IVS cells (DC pulsed once with HERV-K protein) against MAPs, 9-mer pools or single peptides; assay type: cell-based, human; conditions: donor 449731, IVS cells, FIG. 15C
# Description: FIGS. 15A-C. ELISPOT was employed to determine the production of IFN-γ in twelve 15-mer small pools. (FIG. 15A) Numbers of spots detected in multiple pools are shown for a breast cancer patient diagnosed with IDC (Acc 30) or a patient diagnosed with teratoma (Acc 32). (FIG. 15B) Numbers of spots detected in multiple pools are shown for a patient diagnosed with left breast minute foci of sugg papillary lesion (967092) or IDC (Acc 31). SP 1-12 represents small peptide pools #1-12. Pool 0 contains no peptides (as control). (FIG. 15C) T cells obtained from PBMC stimulated once with HERV-K-specific pulsed homologous B cells were reactive with individual MAPs, pools of 9-mer peptides, or single 9-mer peptides. NP: no peptide control.
# IVS were obtained from two donor pairs stimulated with DC pulsed once with HERV-K protein. After 7 days (1-week stimulation), IVS cells were used for ELISPOT with 15-mer peptides (FIGS. 15A-B) or MAPs including MAP73, MAP75-76, MAP82-93, MAP 92-93, and MAP95-96 or 9 mer peptide pools (#1 to 5, #5 to 10, #1 to 10, #12 to 17, #18 to 22) or single peptides (#3, #18, and #4.11; FIG. 15C). Candidate epitopes (#4 and #11) were further identified using IVS generated from DC obtained from cancer patients stimulated with HERV-K antigen in this study.
# [3] = system: T cells in PBMCs; experiment: IFN-γ release by ELISA from PBMC stimulated with peptides or protein; assay type: cell-based, human; conditions: stimulated PBMC, FIG. 21A
# Description: FIG. 17. T cell stimulation by HERV-K peptides. Peptides (p73-76 and p18-135) or HERV-K SU fusion proteins were used to stimulate PBMC and evaluated in vitro for their ability to stimulate T cells in PBMCs from healthy subjects (ND1007083; left) and/or cancer patients (BC 243; right), based on interferon-γ(IFN-γ) release by ELISA. KLH peptide and GST protein were used as controls. Other negative controls included media only, DMSO, and PBS.
# FIG. 18. T cell stimulation by HERV-K peptides. Peptides (p73-76: left; and p18-135: middle) or HERV-K SU fusion proteins (right) were used to stimulate PBMC and evaluated in vitro for their ability to stimulate T cells in PBMCs from healthy subjects and/or cancer patients (BC 243; middle), based on interferon-γ (IFN-γ) release by ELISA. OD values of interferon-γ (IFN-γ) release were compared between normal donors (ND447549, ND1001366, and ND1007083) and cancer patients (OC222, OC 210, OC212, and BC243). OC is ovarian cancer and BC is breast cancer
# FIGS. 21A-C. T Cell Stimulation. 9 mer Peptides (HERVK-3, HERVK-4, HERVK-11, and HERVK-18; see Table 1), p73-76 and p18-135 (Table 1 178 and 179), or HERV-K SU fusion proteins were used to stimulate PBMC and evaluated in vitro for their ability to stimulate T cells in PBMCs from healthy subjects and/or cancer patients, based on IFN-γ and Granzyme B release by ELISA. (FIG. 21A) OD values of IFN-γ release were compared in a normal donor (ND291812). (FIG. 21B) OD values of IFN-γ release were compared between a normal donor (ND291817) and an ovarian cancer patient (OC153). (FIG. 21C) OD values of Granzyme B release were compared between a normal donor (ND291817) and an ovarian cancer patient (OC153). Each dot represents an individual clone. Negative controls measured release of effector molecules from cancer cells after treatment with supernatants obtained from PBMCs without stimulation with HERV-K peptides or protein; positive controls were stimulated with PMA/ONO.
# Cancer patients were enrolled to evaluate HERV-K as a tumor associated antigen target. Patients provided written informed consent as part of an approved protocol (LAB04-0083) at MD Anderson Cancer Center prior to commencing the studies. Normal healthy donor control blood samples were obtained from Gulf Coast Regional Blood Center, Houston Tex. 40 mL of peripheral blood was obtained from each patient, and peripheral blood mononuclear cells (PBMCs) were isolated by density gradient centrifugation using Histopaque-1077 (Sigma-Aldrich; USA). HLA-A*02 expression in PBMCs obtained from cancer patients and healthy subjects was determined by flow cytometry with PE Mouse anti-human HLA-A2 mAb BB7.2 (BD Pharmingen; San Diego, Calif., USA). Mouse IgG2b was used as an isotype control. PBMCs (5×10^5 cells/well) from either healthy subjects or cancer patients were incubated with Peptide #18-135 ([…]; SEQ ID NO: 178), Peptide #73-76 ([…]; SEQ ID NO: 179) or KLH as control peptide) or proteins (HERV-K env SU protein or GST protein as control) at concentrations of 40 μg/mL in 96-well U-bottom microplates (BD; Franklin Lakes, N.J., USA) in 100 μL of T-cell medium (TCM), consisting of RPMI 1640 (Mediatech; Manassas, Va., USA), 10% human AB serum (Valley Biomedical, Winchester, USA), […] 2-mercaptoethanol, 100 IU/mL interleukin-2 (IL-2), and 0.1 mM MEM nonessential amino acid solution (Invitrogen; Grand Island, N.Y., USA). Half of the TCM was removed and replaced with fresh TCM containing peptides (20 μg/mL) on day 7. After 14 days of culture, the supernatants from cell culture media (PBMC pulsed with peptides or proteins) were harvested and tested for their ability to produce IFN-gamma or IL-2, and granzyme B release was also determined by enzyme-linked immunosorbent assay (ELISA) assay. In order to detect the secreted cytokine in this assay, high-binding plates were coated with 5 μg/ml anti-IFN-γ (Mabtech, Stockholm, Sweden) diluted in PBS buffer at 4° C. overnight. […]
# [4] = system: TIL obtained from melanoma patient; experiment: IFN-γ ELISPOT with TIL from melanoma patient; assay type: cell-based, human
# [5] = system: T cells from HLA A2+ normal donor; experiment: IFN-γ ELISPOT, T cells stimulated by 9-mer peptide pool-pulsed homologous B cells; assay type: cell-based, human; conditions: T cell stimulated 3 times with peptide pool #12 to 22
# Description: FIGS. 12A-B. Identification of HLA-A2 T-cell specific peptides using anti-human IFN-γ ELISPOT with T cells from one HLA A2^+ normal donor. (FIG. 12A) T cells, stimulated by peptide pool-pulsed homologous B cells three (3rd T cells) or four (4th T cells) times were reactive with two pools from a HERV-K HLA A2^+9-mer peptide library (pool #1-11 and pool #12-22). NP is no peptide control. (FIG. 12B) Photographs of actual plates for FIG. 12A.
# FIGS. 13A-B. Identification of HLA-A2 T cell specific epitopes using anti-human IFN-γ ELISPOT. T cells obtained from PBMC stimulated by peptide pool-pulsed homologous B cells three (3rd T cells) or four (4th T cells) times, were reactive with individual peptides. (FIG. 13A) Image of ELISPOT. (FIG. 13B) The code of peptides evaluated in ELISPOT assays.
# FIGS. 14A-C. Summary of number of ELISPOTs from each individual peptide. Numbers of spots detected (pool 1-11, pool 12-22, and pool 23-33) in ELISPOTS with a single peptide are shown. NP contains no peptide (as control). (FIG. 14A) Summary of number of ELISPOTs from each individual peptide including #1, #2, #3, #5, #6, #7, #8, and #9, and peptide pool #1 to #11. (FIG. 14B) Summary of number of ELISPOTs from each individual peptide including #12, #13, #14, #15, #17, #18, #19, #20, #22 and peptide pool #12 to #22. (FIG. 14C) Summary of number of ELISPOTs from each individual peptide including #23, #24, #25, #26, #27, #28, #30, #31, #32, #33, and peptide pool #23 to #33. 4th T cells indicated the T cells had been stimulated with peptide pool 4 times and 3rd T cells indicated the T cells had been stimulated with peptide pool 3 times.
# The inventor used epitope mapping to identify responses to HERV-K peptides in breast cancer patients. They chemically synthesized a HERV-K env nine amino acid (9mer) peptide library (33 HLA A2 restricted peptides) and overlapping 15mer peptide library (144 peptides). Preliminary research has identified two pools from the HERV-K env 9mer peptide library that contain potential CD8+ epitopes, using interferon gamma (IFN-γ) enzyme-linked immunosorbent spot (ELISPOT) assay with T cells from one HLA A2^+ normal donor which was stimulated with the 9mer peptide pool-pulsed homologous dendritic cells (DCs).
# HLA-2+ patients were identified by flow cytometry using anti-A2 antibody. Activated B cells were cultured from PBMCs stimulated with irradiated 3T3-CD40L-expressing fibroblasts. Normal donor CD8+ T-cell lines were obtained from PBMCs stimulated with autologous activated B cells pulsed with peptide pools (peptides are in 3 pools: #1-11, #12-22, and #23-33); the stimulation was repeated for 3-4 cycles. HERV-K specific T cells generated from normal donor lines were tested for peptide reactivity using IFN-γ ELISPOT assays (FIGS. 12A-B).
sequence,measurement,setting,value
GVALHSSVQSVNFVN [15-mer 95],B epitope found by ELISA using patient sera,[1],epitopes were found
LNRSKRFIFTLIAVI [15-mer 88],B epitope found by ELISA using patient sera,[1],epitopes were found
LMSLEHRFQLQCDWN [15-mer 108],B epitope found by ELISA using patient sera,[1],epitopes were found; also recorded: the only active epitope in each patient's serum
ILVCLFCLL [HERVK-11],HERV-K specific T cell epitope (IFN-γ ELISPOT),[2],HERV-K specific T cell epitopes
same,IFN-γ release (OD values),[3],Higher IFN-γ release
LILVCLFCL [HERVK-4],HERV-K specific T cell epitope (IFN-γ ELISPOT),[2],HERV-K specific T cell epitopes
same,IFN-γ release (OD values),[3],Higher IFN-γ release
AAVAGVALHSSVQSV [15-mer 94],B epitope found by ELISA using patient sera,[1],epitopes were found
AVIMGLIAVTATAAV [15-mer 91],B epitope found by ELISA using patient sera,[1],epitopes were found
KRFIFTLIAVIMGLI [15-mer 89],B epitope found by ELISA using patient sera,[1],epitopes were found
SQTITCENCRLLSCI [15-mer 73],recognition by TILs (IFN-γ ELISPOT),[4]; TIL from a melanoma patient,the single peptide in SP7 which was recognized by TILs
same,number of IFN-γ spots,"[4]; TIL from melanoma patient specimens, FIG. 16A",large number of spots
TLIAVIMGL [HERVK-15],IFN-γ ELISPOT spots with individual peptide,[5],numerous spots
